Test results published in ChEMBL document CHEMBL1134814, “New anti-MRSA cephalosporins with a basic aminopyridine at the C-7 position” (2001).
In brackets after ≈: the same amount, converted by molar mass.

System: Staphylococcus aureus
Experiment: In vitro inhibition of growth of methicillin-resistant Staphylococcus aureus MRSA 76 (clinical isolates)
Format: functional

Row | SMILES | MIC [µg/mL]
1 | C[C@@H](O)[C@H]1C(=O)N2C(C(=O)O)=C(SCCNC=N)C[C@H]12 [IMIPENEM ANHYDROUS] | 32 (≈ 107 µM)
2 | NCCSCc1cnccc1SC1=C(C(=O)O)N2C(=O)[C@@H](NC(=O)/C(=N\O)c3cccc(N)n3)[C@H]2SC1 | 1 (≈ 1.78 µM)
3 | Cc1nc(CSCCN)c(SC2=C(C(=O)O)N3C(=O)[C@@H](NC(=O)/C(=N\O)c4cccc(N)n4)[C@H]3SC2)s1 | 2 (≈ 3.44 µM)
4 | NCCSCc1nnsc1SC1=C(C(=O)O)N2C(=O)[C@@H](NC(=O)/C(=N\O)c3cccc(N)n3)[C@H]2SC1 | 1 (≈ 1.76 µM)
5 | NCCSCc1csc(SC2=C(C(=O)O)N3C(=O)[C@@H](NC(=O)/C(=N\O)c4cccc(N)n4)[C@H]3SC2)n1 | 2 (≈ 3.52 µM)
6 | NCCSc1cncc(SC2=C(C(=O)O)N3C(=O)[C@@H](NC(=O)/C(=N\O)c4cccc(N)n4)[C@H]3SC2)n1 | 16 (≈ 29.2 µM)
7 | NCCSc1nsc(SC2=C(C(=O)O)N3C(=O)[C@@H](NC(=O)/C(=N\O)c4cccc(N)n4)[C@H]3SC2)n1 | 2 (≈ 3.61 µM)
8 | NCCSCc1nc(Cl)sc1SC1=C(C(=O)O)N2C(=O)[C@@H](NC(=O)/C(=N\O)c3cccc(N)n3)[C@H]2SC1 | 2 (≈ 3.32 µM)
9 | COc1nc(CSCCN)c(SC2=C(C(=O)O)N3C(=O)[C@@H](NC(=O)/C(=N\O)c4cccc(N)n4)[C@H]3SC2)s1 | 4 (≈ 6.69 µM)
10 | NCCSCc1ncsc1SC1=C(C(=O)O)N2C(=O)[C@@H](NC(=O)/C(=N\O)c3cccc(N)n3)[C@H]2SC1 | 2 (≈ 3.52 µM)
11 | NCCSCc1ccccc1SC1=C(C(=O)O)N2C(=O)[C@@H](NC(=O)/C(=N\O)c3cccc(N)n3)[C@H]2SC1 | 1 (≈ 1.78 µM)
12 | NCCSc1nccnc1SC1=C(C(=O)O)N2C(=O)[C@@H](NC(=O)/C(=N\O)c3cccc(N)n3)[C@H]2SC1 | 2 (≈ 3.65 µM)
13 | NCCCSc1nsc(SC2=C(C(=O)O)N3C(=O)[C@@H](NC(=O)/C(=N\O)c4cccc(N)n4)[C@H]3SC2)n1 | 2 (≈ 3.52 µM)
14 | NCCSc1nccc(SC2=C(C(=O)O)N3C(=O)[C@@H](NC(=O)/C(=N\O)c4cccc(N)n4)[C@H]3SC2)n1 | 16 (≈ 29.2 µM)
15 | NCCSCc1nnsc1SC1=C(C(=O)O)N2C(=O)[C@@H](NC(=O)/C(=N\O)c3csc(N)n3)[C@H]2SC1 | 1 (≈ 1.74 µM)
16 | NCCSCc1nsc(SC2=C(C(=O)O)N3C(=O)[C@@H](NC(=O)/C(=N\O)c4cccc(N)n4)[C@H]3SC2)n1 | 4 (≈ 7.03 µM)
17 | NCCSCc1cnccc1SC1=C(C(=O)O)N2C(=O)[C@@H](NC(=O)/C(=N\O)c3nc(N)sc3Cl)[C@H]2SC1 | 1 (≈ 1.66 µM)
18 | NCCSCc1nc(N)sc1SC1=C(C(=O)O)N2C(=O)[C@@H](NC(=O)/C(=N\O)c3cccc(N)n3)[C@H]2SC1 | 8 (≈ 13.7 µM)
19 | NCCSCc1nc(SCCN)sc1SC1=C(C(=O)O)N2C(=O)[C@@H](NC(=O)/C(=N\O)c3cccc(N)n3)[C@H]2SC1 | 1 (≈ 1.56 µM)

System: Staphylococcus aureus
Experiment: In vitro inhibition of growth of methicillin-resistant Staphylococcus aureus MRSA ATCC 335893 (clinical isolates)
Format: functional

Row | SMILES | MIC [µg/mL]
20 | C[C@@H](O)[C@H]1C(=O)N2C(C(=O)O)=C(SCCNC=N)C[C@H]12 [IMIPENEM ANHYDROUS] | 32 (≈ 107 µM)
21 | NCCSCc1cnccc1SC1=C(C(=O)O)N2C(=O)[C@@H](NC(=O)/C(=N\O)c3cccc(N)n3)[C@H]2SC1 | 2 (≈ 3.56 µM)
22 | Cc1nc(CSCCN)c(SC2=C(C(=O)O)N3C(=O)[C@@H](NC(=O)/C(=N\O)c4cccc(N)n4)[C@H]3SC2)s1 | 2 (≈ 3.44 µM)
23 | NCCSCc1nnsc1SC1=C(C(=O)O)N2C(=O)[C@@H](NC(=O)/C(=N\O)c3cccc(N)n3)[C@H]2SC1 | 1 (≈ 1.76 µM)
24 | NCCSCc1csc(SC2=C(C(=O)O)N3C(=O)[C@@H](NC(=O)/C(=N\O)c4cccc(N)n4)[C@H]3SC2)n1 | 1 (≈ 1.76 µM)
25 | NCCSc1cncc(SC2=C(C(=O)O)N3C(=O)[C@@H](NC(=O)/C(=N\O)c4cccc(N)n4)[C@H]3SC2)n1 | 8 (≈ 14.6 µM)
26 | NCCSc1nsc(SC2=C(C(=O)O)N3C(=O)[C@@H](NC(=O)/C(=N\O)c4cccc(N)n4)[C@H]3SC2)n1 | 2 (≈ 3.61 µM)
27 | NCCSCc1nc(Cl)sc1SC1=C(C(=O)O)N2C(=O)[C@@H](NC(=O)/C(=N\O)c3cccc(N)n3)[C@H]2SC1 | 1 (≈ 1.66 µM)
28 | COc1nc(CSCCN)c(SC2=C(C(=O)O)N3C(=O)[C@@H](NC(=O)/C(=N\O)c4cccc(N)n4)[C@H]3SC2)s1 | 4 (≈ 6.69 µM)
29 | NCCSCc1ncsc1SC1=C(C(=O)O)N2C(=O)[C@@H](NC(=O)/C(=N\O)c3cccc(N)n3)[C@H]2SC1 | 1 (≈ 1.76 µM)
30 | NCCSCc1ccccc1SC1=C(C(=O)O)N2C(=O)[C@@H](NC(=O)/C(=N\O)c3cccc(N)n3)[C@H]2SC1 | 1 (≈ 1.78 µM)
31 | NCCSc1nccnc1SC1=C(C(=O)O)N2C(=O)[C@@H](NC(=O)/C(=N\O)c3cccc(N)n3)[C@H]2SC1 | 2 (≈ 3.65 µM)
32 | NCCCSc1nsc(SC2=C(C(=O)O)N3C(=O)[C@@H](NC(=O)/C(=N\O)c4cccc(N)n4)[C@H]3SC2)n1 | 2 (≈ 3.52 µM)
33 | NCCSc1nccc(SC2=C(C(=O)O)N3C(=O)[C@@H](NC(=O)/C(=N\O)c4cccc(N)n4)[C@H]3SC2)n1 | 8 (≈ 14.6 µM)
34 | NCCSCc1nnsc1SC1=C(C(=O)O)N2C(=O)[C@@H](NC(=O)/C(=N\O)c3csc(N)n3)[C@H]2SC1 | 1 (≈ 1.74 µM)
35 | NCCSCc1nsc(SC2=C(C(=O)O)N3C(=O)[C@@H](NC(=O)/C(=N\O)c4cccc(N)n4)[C@H]3SC2)n1 | 2 (≈ 3.52 µM)
36 | NCCSCc1cnccc1SC1=C(C(=O)O)N2C(=O)[C@@H](NC(=O)/C(=N\O)c3nc(N)sc3Cl)[C@H]2SC1 | 1 (≈ 1.66 µM)
37 | NCCSCc1nc(N)sc1SC1=C(C(=O)O)N2C(=O)[C@@H](NC(=O)/C(=N\O)c3cccc(N)n3)[C@H]2SC1 | 2 (≈ 3.43 µM)
38 | NCCSCc1nc(SCCN)sc1SC1=C(C(=O)O)N2C(=O)[C@@H](NC(=O)/C(=N\O)c3cccc(N)n3)[C@H]2SC1 | 1 (≈ 1.56 µM)

System: Staphylococcus aureus
Experiment: In vitro inhibition of growth of methicillin-resistant Staphylococcus aureus MRSA spain 356 (clinical isolates)
Format: functional

Row | SMILES | MIC [µg/mL]
39 | C[C@@H](O)[C@H]1C(=O)N2C(C(=O)O)=C(SCCNC=N)C[C@H]12 [IMIPENEM ANHYDROUS] | 32 (≈ 107 µM)
40 | NCCSCc1cnccc1SC1=C(C(=O)O)N2C(=O)[C@@H](NC(=O)/C(=N\O)c3cccc(N)n3)[C@H]2SC1 | 2 (≈ 3.56 µM)
41 | Cc1nc(CSCCN)c(SC2=C(C(=O)O)N3C(=O)[C@@H](NC(=O)/C(=N\O)c4cccc(N)n4)[C@H]3SC2)s1 | 2 (≈ 3.44 µM)
42 | NCCSCc1nnsc1SC1=C(C(=O)O)N2C(=O)[C@@H](NC(=O)/C(=N\O)c3cccc(N)n3)[C@H]2SC1 | 1 (≈ 1.76 µM)
43 | NCCSCc1csc(SC2=C(C(=O)O)N3C(=O)[C@@H](NC(=O)/C(=N\O)c4cccc(N)n4)[C@H]3SC2)n1 | 2 (≈ 3.52 µM)
44 | NCCSc1cncc(SC2=C(C(=O)O)N3C(=O)[C@@H](NC(=O)/C(=N\O)c4cccc(N)n4)[C@H]3SC2)n1 | 16 (≈ 29.2 µM)
45 | NCCSc1nsc(SC2=C(C(=O)O)N3C(=O)[C@@H](NC(=O)/C(=N\O)c4cccc(N)n4)[C@H]3SC2)n1 | 2 (≈ 3.61 µM)
46 | NCCSCc1nc(Cl)sc1SC1=C(C(=O)O)N2C(=O)[C@@H](NC(=O)/C(=N\O)c3cccc(N)n3)[C@H]2SC1 | 1 (≈ 1.66 µM)
47 | COc1nc(CSCCN)c(SC2=C(C(=O)O)N3C(=O)[C@@H](NC(=O)/C(=N\O)c4cccc(N)n4)[C@H]3SC2)s1 | 4 (≈ 6.69 µM)
48 | NCCSCc1ncsc1SC1=C(C(=O)O)N2C(=O)[C@@H](NC(=O)/C(=N\O)c3cccc(N)n3)[C@H]2SC1 | 2 (≈ 3.52 µM)
49 | NCCSCc1ccccc1SC1=C(C(=O)O)N2C(=O)[C@@H](NC(=O)/C(=N\O)c3cccc(N)n3)[C@H]2SC1 | 1 (≈ 1.78 µM)
50 | NCCSc1nccnc1SC1=C(C(=O)O)N2C(=O)[C@@H](NC(=O)/C(=N\O)c3cccc(N)n3)[C@H]2SC1 | 2 (≈ 3.65 µM)
51 | NCCCSc1nsc(SC2=C(C(=O)O)N3C(=O)[C@@H](NC(=O)/C(=N\O)c4cccc(N)n4)[C@H]3SC2)n1 | 2 (≈ 3.52 µM)
52 | NCCSc1nccc(SC2=C(C(=O)O)N3C(=O)[C@@H](NC(=O)/C(=N\O)c4cccc(N)n4)[C@H]3SC2)n1 | 16 (≈ 29.2 µM)
53 | NCCSCc1nnsc1SC1=C(C(=O)O)N2C(=O)[C@@H](NC(=O)/C(=N\O)c3csc(N)n3)[C@H]2SC1 | 1 (≈ 1.74 µM)
54 | NCCSCc1nsc(SC2=C(C(=O)O)N3C(=O)[C@@H](NC(=O)/C(=N\O)c4cccc(N)n4)[C@H]3SC2)n1 | 4 (≈ 7.03 µM)
55 | NCCSCc1cnccc1SC1=C(C(=O)O)N2C(=O)[C@@H](NC(=O)/C(=N\O)c3nc(N)sc3Cl)[C@H]2SC1 | 1 (≈ 1.66 µM)
56 | NCCSCc1nc(N)sc1SC1=C(C(=O)O)N2C(=O)[C@@H](NC(=O)/C(=N\O)c3cccc(N)n3)[C@H]2SC1 | 4 (≈ 6.86 µM)
57 | NCCSCc1nc(SCCN)sc1SC1=C(C(=O)O)N2C(=O)[C@@H](NC(=O)/C(=N\O)c3cccc(N)n3)[C@H]2SC1 | 1 (≈ 1.56 µM)
